Results: ChEMBL document CHEMBL1201862, “PubChem BioAssay data set” (2004)
Active and inactive are the calls of the source. For most assays here, no stated cut-off is given here; in the data, actives have a measured EC50 and inactives only a lower limit.

Assays:
Streptokinase A = biological target: T1, Streptokinase A (Streptococcus pyogenes serotype M1, UniProt P10520); assay: viability-normalized secreted streptokinase activity reduction – plasminogen activation absorbance, OD405, dose response (AID 1914); assay type: functional, Streptococcus pyogenes M1 GAS;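 further: secreted streptokinase activity via plasminogen activation per viability signal from cell pellet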
T1 sequence (P10520 whole entry): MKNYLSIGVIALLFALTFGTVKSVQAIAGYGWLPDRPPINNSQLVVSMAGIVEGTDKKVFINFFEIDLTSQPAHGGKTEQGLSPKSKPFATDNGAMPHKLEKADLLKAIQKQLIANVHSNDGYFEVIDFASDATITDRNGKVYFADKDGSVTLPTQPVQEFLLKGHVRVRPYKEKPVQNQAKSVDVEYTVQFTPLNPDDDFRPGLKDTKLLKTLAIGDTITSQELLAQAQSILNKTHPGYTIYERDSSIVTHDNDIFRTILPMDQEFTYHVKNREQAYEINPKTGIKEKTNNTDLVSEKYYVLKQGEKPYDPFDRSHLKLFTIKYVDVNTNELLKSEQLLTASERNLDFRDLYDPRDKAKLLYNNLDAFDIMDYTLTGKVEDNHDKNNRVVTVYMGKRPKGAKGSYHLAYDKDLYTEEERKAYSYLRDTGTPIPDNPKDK

[1] = test system: Streptococcus sp. 'group A'; assay: Streptococcus pyogenes SK(-)GAS viability under kanamycin – luminescence, BacTiterGlo, confirmation, counter-screen for streptokinase expression inhibitor project, dose response (AID 1900); assay type: functional, organism-based
Streptococcus = assay: GAS UMAA2166 growth inhibition – luminescence, BacTiterGlo, counter-screen for streptokinase expression inhibitor project, dose response (AID 1915); assay type: functional, organism-based;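 further: potency for reduction of bacterial viability or growth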
[2] = Trypanosoma cruzi growth suppression in host cells – NIH3T3 host cells, beta-gal luminescence, confirmation (AID 2044); assay type: functional, cell-based;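 further: intracellular parasites grown in NIH/3T3 mouse fibroblasts as host cells; luminescent beta-galactosidase reporter signal from transgenic T. cruzi replicating inside host cells; inhibitors lower the luminescence signal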
[3] = NIH3T3 cell viability loss – ATP luminescence, mouse fibroblasts, counter-screen, dose response (AID 2010); assay type: functional, cell-based;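 further: cells exposed to compound for about 90 hours before reading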
[4] = biological target: T2, Corticotropin-releasing factor receptor 2/Corticotropin-releasing factor-binding protein (Homo sapiens, UniProt P24387+Q13324); assay: activators of CRF receptor 2 with binding protein – uHTS hits, confirmation (AID 602473); assay type: functional; settings: read-out: EC50_Mean
T2 sequence (Q13324 whole entry): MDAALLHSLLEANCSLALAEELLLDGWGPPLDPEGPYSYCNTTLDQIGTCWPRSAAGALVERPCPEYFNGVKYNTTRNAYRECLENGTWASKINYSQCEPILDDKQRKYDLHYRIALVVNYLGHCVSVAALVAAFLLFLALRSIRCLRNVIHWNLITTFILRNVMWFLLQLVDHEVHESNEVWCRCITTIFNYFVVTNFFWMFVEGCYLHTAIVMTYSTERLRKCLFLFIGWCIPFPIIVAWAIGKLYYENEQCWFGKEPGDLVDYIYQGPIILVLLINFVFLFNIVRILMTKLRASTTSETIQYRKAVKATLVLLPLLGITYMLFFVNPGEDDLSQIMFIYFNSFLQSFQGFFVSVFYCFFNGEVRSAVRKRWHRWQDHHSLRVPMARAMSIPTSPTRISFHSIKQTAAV
T2 sequence (P24387 whole entry): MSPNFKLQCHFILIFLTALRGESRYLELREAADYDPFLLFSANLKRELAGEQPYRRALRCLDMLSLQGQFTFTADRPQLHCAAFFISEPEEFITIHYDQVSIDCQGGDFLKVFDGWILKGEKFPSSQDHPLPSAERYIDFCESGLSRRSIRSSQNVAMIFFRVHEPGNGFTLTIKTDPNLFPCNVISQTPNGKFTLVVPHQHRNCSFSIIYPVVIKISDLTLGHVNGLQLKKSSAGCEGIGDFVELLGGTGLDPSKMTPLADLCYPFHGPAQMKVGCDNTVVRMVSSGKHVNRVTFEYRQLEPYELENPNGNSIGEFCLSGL

Cytochrome P450 1A2 = biological target: T3, Cytochrome P450 1A2 (Homo sapiens, UniProt P05177);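 further: PubChem cytochrome P450 panel assay, CYP1A2 panel member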
T3 sequence (P05177 whole entry): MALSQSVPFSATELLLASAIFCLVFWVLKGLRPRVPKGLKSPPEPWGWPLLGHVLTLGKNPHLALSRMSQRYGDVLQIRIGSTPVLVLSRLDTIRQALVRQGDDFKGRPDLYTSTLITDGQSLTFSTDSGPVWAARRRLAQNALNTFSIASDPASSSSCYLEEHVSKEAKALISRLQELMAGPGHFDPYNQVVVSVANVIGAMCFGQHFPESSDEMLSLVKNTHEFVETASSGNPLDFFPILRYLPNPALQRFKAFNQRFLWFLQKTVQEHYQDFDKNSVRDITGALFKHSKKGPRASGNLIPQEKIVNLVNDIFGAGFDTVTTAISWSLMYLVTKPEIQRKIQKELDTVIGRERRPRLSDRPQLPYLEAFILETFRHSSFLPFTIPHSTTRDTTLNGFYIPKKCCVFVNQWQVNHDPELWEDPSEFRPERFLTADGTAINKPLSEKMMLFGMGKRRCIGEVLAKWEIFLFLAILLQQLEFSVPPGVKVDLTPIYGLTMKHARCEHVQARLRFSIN

COc1ccc(NC(=O)CSc2ccc3nnc(-c4ccccn4)n3n2)c(OC)c1
EC50 (Streptokinase A): > 150 µM (not active)
EC50 [1]: > 150 µM (not active)
EC50 (Streptococcus): > 150 µM (not active)

CCC(N=C(S)NC1CCCCC1)c1ccc(C(C)C)cc1 (stereo not given)
EC50 [1]: 10.7 µM (active)
EC50 (Streptococcus): 82 µM (active)

COc1ccccc1C(c1nnnn1Cc1ccco1)N1CCN(c2cccc(C)c2C)CC1 (stereo not given)
EC50 [2]: 1.84 µM (active)
EC50 [3]: > 60 µM (not active)

CN1C(=O)C(=Cc2ccc(N3CCOCC3)o2)C(=O)N(C)C1=S
EC50 [4]: 7.57 µM (active)

CCCOc1ccc(CNCCCOCC)cc1OC
EC50 [2]: 0.344 µM (active)
EC50 [3]: > 60 µM (inconclusive)

CC1(C)CC(=O)c2c(n(S(=O)(=O)c3ccccc3)c3ccc(NS(=O)(=O)c4ccccc4)cc23)C1
EC50 [2]: 1.03 µM (active)
EC50 [3]: 10.6 µM (active)

C=CCn1c(Oc2ccc(C(=O)OC)cc2)nc2c1c(=O)n(C)c(=O)n2C
EC50 (Streptokinase A): > 150 µM (not active)
EC50 [1]: 12.4 µM (active)
EC50 (Streptococcus): > 150 µM (not active)

CCOc1ccc(NS(=O)(=O)c2cc(NC(=O)c3ccc(C)cc3)ccc2Cl)cc1
EC50 [1]: 12.5 µM (active)
EC50 (Streptococcus): 6.62 µM (active)

COC(=O)C1=CN(Cc2ccc(OC)c(OC)c2)C=C(C(=O)OC)C1c1cccs1
EC50 [2]: 0.707 µM (active)

CC1CCCC(C)N1S(=O)(=O)c1ccc(S(=O)(=O)NCCc2ccncc2)cc1 (stereo not given)
EC50 [2]: 2.83 µM (active)
EC50 [3]: > 60 µM (not active)

CCOc1ccc(C)cc1S(=O)(=O)NC1CCCCCC1
EC50 (Streptokinase A): > 150 µM (not active)
EC50 [1]: > 150 µM (not active)
EC50 (Streptococcus): > 150 µM (not active)

Cc1cc(C)nc(N=C(NCCc2c[nH]c3ccccc23)NC(=O)Nc2ccc(Cl)c(Cl)c2)n1
EC50 [2]: 1.62 µM (active)
EC50 [3]: > 60 µM (not active)

Cc1ccc(C(=O)N2CCOCC2)cc1S(=O)(=O)N1CCOCC1
EC50 (Streptokinase A): > 150 µM (not active)
EC50 [1]: > 150 µM (not active)
EC50 (Streptococcus): > 150 µM (not active)

O=C(O)c1ccc(N2C=[N+]3C(=Nc4ccccc43)C2)cc1
AC50 (Cytochrome P450 1A2): 5.01 µM (inconclusive)

Cc1c(-n2cc(C(=O)c3cc(F)ccc3O)cc(C#N)c2=O)c(=O)n(-c2ccccc2)n1C
EC50 [4]: > 53 µM (inactive)

Cn1c(Oc2ccccc2NCc2cc(Br)ccc2O)cc(=O)n(C)c1=O
EC50 (Streptokinase A): > 150 µM (not active)
EC50 [1]: 6.42 µM (active)
EC50 (Streptococcus): 16.1 µM (active)

CCOc1cccc2sc(N(CCCN(C)C)C(=O)c3ccc(S(=O)(=O)N(C)c4ccccc4)cc3)nc12
EC50 [2]: 1.52 µM (active)
EC50 [3]: > 60 µM (not active)

COc1ccc(CN(C(=O)c2ccc(-c3ccccc3)[nH]2)C(C(=O)NC(C)(C)C)c2ccncc2)cc1 (stereo not given)
EC50 [2]: 0.706 µM (active)
EC50 [3]: > 60 µM (not active)

CNC(=O)[C@H](C)[C@H]1C[C@]1(C)[C@H](NC(=O)OCc1ccccc1)c1ccccc1
AC50 (Cytochrome P450 1A2): 20 µM (inconclusive)

CCOC(=O)N1CCN(CC(O)c2ccc3cc[nH]c3c2)CC1 (stereo not given)
EC50 [4]: > 53 µM (inactive)

COc1cc(CNCCc2ccccc2F)ccc1OCC(=O)N1CCCCC1
EC50 [2]: 0.393 µM (active)
EC50 [3]: > 30 µM (not active)

O=C(N[C@@H](c1ccccc1)[C@@H]1C[C@H]1C(=O)O)OCc1ccccc1
AC50 (Cytochrome P450 1A2): 20 µM (inconclusive)

Cc1ccccc1-n1nc(C(=O)c2cccs2)cc(-c2nc3ccccc3[nH]2)c1=N
EC50 [1]: 2.99 µM (active)
EC50 (Streptococcus): 3.73 µM (active)

O=[N+]([O-])c1cc(-c2n[nH]c(-c3ccccc3)n2)cc([N+](=O)[O-])c1
EC50 [2]: 0.475 µM (active)
EC50 [3]: > 60 µM (not active)

O=C1c2cccnc2C(=O)N1Cc1ccc(F)cc1
AC50 (Cytochrome P450 1A2): 17.8 µM (inconclusive)

COc1ccccc1C(=O)NC(=S)Nc1ccc(N2CCCC2)cc1
EC50 [2]: 1.97 µM (active)
EC50 [3]: > 60 µM (not active)

Cc1cccc(NC(=O)C(=O)NNC(=O)c2ccc(C(C)(C)C)cc2)c1
EC50 (Streptokinase A): > 150 µM (not active)
EC50 [1]: 9.34 µM (active)
EC50 (Streptococcus): 25.4 µM (active)

CN1CCN(c2ncnc3sc(-c4ccccc4)cc23)CC1
EC50 [2]: 0.314 µM (active)
EC50 [3]: > 60 µM (not active)

CCc1ccc(CN(Cc2cccnc2)C(=O)/C=C/c2ccc(OC)cc2)cc1
EC50 [2]: 0.375 µM (active)
EC50 [3]: > 30 µM (not active)

CCCCn1c(=N)c(S(=O)(=O)c2ccc(Br)cc2)cc2c(=O)n3cccc(C)c3nc21
EC50 [4]: > 53 µM (inactive)

COC(=O)[C@@]12CCCN1[C@H](c1ccc(-c3cccc(Cl)c3)c(OC)c1)[C@H]1C(=O)N(C)C(=O)[C@H]12
EC50 (Streptokinase A): > 150 µM (not active)
EC50 [1]: 105 µM (active)
EC50 (Streptococcus): > 150 µM (not active)

O=c1[nH]c(=O)c2cc([N+](=O)[O-])cc([N+](=O)[O-])c2[nH]1
EC50 [2]: 1.04 µM (active)
EC50 [3]: > 30 µM (not active)

CCOC(=O)N1CCN(c2c(O)nc3ccc(Cl)cc3c2-c2ccccc2)CC1
AC50 (Cytochrome P450 1A2): 0.158 µM (inconclusive)

Cc1ccc(NC(=S)NC2CCSc3ccccc32)cc1C (stereo not given)
EC50 (Streptokinase A): 24.3 µM (active)

Cc1ccc(NC(S)=NC2CCSc3ccccc32)cc1C (stereo not given)
EC50 [1]: 20.6 µM (active)
EC50 (Streptococcus): > 150 µM (not active)

N#Cc1c(NC(=S)NC(=O)c2ccccc2)sc2c1CCN(CCc1ccccc1)C2
EC50 [2]: 0.717 µM (active)
EC50 [3]: > 60 µM (not active)

COc1ccc(C(=O)Nc2c3c(nn2-c2ccc([N+](=O)[O-])cc2)CS(=O)(=O)C3)cc1
EC50 (Streptokinase A): > 150 µM (not active)
EC50 [1]: 16.1 µM (active)
EC50 (Streptococcus): > 150 µM (not active)

Clc1ccc(C2C3=C(Nc4ncnn42)c2ccccc2CC3)cc1 (stereo not given)
EC50 (Streptokinase A): > 150 µM (not active)
EC50 [1]: 7.5 µM (active)
EC50 (Streptococcus): 43.2 µM (active)

CN1CCN(c2ncc3nc(-c4cn(C)c5ccccc45)c(=O)n(-c4ccccc4)c3n2)CC1
AC50 (Cytochrome P450 1A2): 15.8 µM (inconclusive)

CC1CC(C)CN(C2CCCCC2NS(=O)(=O)c2ccc(Cl)cc2)C1 (stereo not given)
EC50 [4]: 6.53 µM (active)

COc1ccc(NS(=O)(=O)c2ccc(C(=O)N3CCC(C)CC3)cc2)cc1
EC50 [4]: 9.87 µM (active)

N#Cc1ccccc1Cn1cc(/C=N/Nc2ccc([N+](=O)[O-])cn2)c2ccccc21
EC50 [2]: 1.94 µM (active)
EC50 [3]: > 60 µM (inconclusive)

Cc1ccc2cc(/C=N/NC(=O)[C@H]3C[C@@H]3c3ccccc3)c(Cl)nc2c1
EC50 [2]: 2.26 µM (active)
EC50 [3]: > 60 µM (not active)

COc1ccccc1CNc1ncnc2ccc(-c3ccccc3CN(C)C)cc12
AC50 (Cytochrome P450 1A2): 15.8 µM (inconclusive)

COc1ccc(/C=C/c2ccncc2)cc1
EC50 [2]: 0.529 µM (active)
EC50 [3]: > 60 µM (not active)

CCOC(=O)c1ccc(OC(=O)CCCCCNC(=N)N)cc1 [GABEXATE]
AC50 (Cytochrome P450 1A2): 15.8 µM (inconclusive)
